Laboratory results reported in patent US20240115654A1, “INTRAVENOUS ADMINISTRATION OF ENGINEERED ANTIMICROBIAL AMPHIPHILIC PEPTIDES” (priority 2021, published 2024).
Where two headings read alike, the source gives them in different places. Peptide text beside a SMILES is read from it.

From the text: All subjects who met eligibility criteria were confined to the clinical research unit from […] through Day 3. At admission, physical examination, vital signs, 12 lead ECG and weight were obtained, medical and medication history were updated if necessary, safety blood tests (hematology and chemistry), urinalysis, urine drug screen and an alcohol breath test were repeated and a urine pregnancy test was done for women of childbearing potential.
At each dose level, there were 2 sentinel subjects, (1 active, 1 placebo), who were dosed at least 48 hours in advance of the other subjects in their respective group. Following review of safety data, including physical examination, vital signs, and review of adverse events from the first 2 subjects, enrolment in the cohort continued.
A 12-lead ECG was performed on Day 1, within 60 minutes of infusion start (in triplicate), mid-way through the infusion, at the completion of the infusion, 30 minutes after completion of the infusion and at various timepoints following the end of the infusion.
Vital signs were recorded within 60 minutes pre-dose, at the mid-point of the infusion and post dose vitals were assessed at completion of the infusion, 0.5, 1, 2, 3, 4, 6, 9, 12, 24 and 48 hours post dose, after at least 3 minutes of rest in supine position.
Subjects returned to the study center 7 days after dosing, for the termination visit. A full physical examination, vital signs and weight were obtained, concomitant medications were updated if necessary, safety blood specimens (haematology and chemistry, PT and aPTT) and urine were collected for urinalysis and urine drug screening. A serum pregnancy test was done for women of childbearing potential and a 12-lead ECG was performed.
In this study dose limiting toxicity (DLT) was defined as any drug related ≥Grade 3 AEs occurring despite optimal therapeutic interventions (which included but were not limited to allergic/hypersensitivity reactions, dermatological reactions/infusion site reactions, haematological toxicities such as neutropenia, thrombocytopenia and anaemia and clinical chemistry abnormalities) experienced up to Day 7 (Termination Visit).
(§1) All subjects who received any amount of study drug were included in the safety analysis (Safety population).
The study was a double blinded, randomized, placebo-controlled study. The placebo administered was 0.9% sodium chloride.
On Day 1 (day of dosing), subjects were randomly assigned either peptide IV or Placebo IV. At each dose level, there were 2 sentinel subjects, (1 active, 1 placebo), who were dosed at least 48 hours in advance of the other subjects in their respective group. Following review of safety data, including physical examination, vital signs, and review of adverse events from the first 2 subjects, enrolment in the cohort continued. All subjects who met eligibility criteria were confined to the clinical research unit from Day −2 through Day 3. At admission, physical examination, vital signs, 12 lead ECG and weight were obtained, medical and medication history were updated if necessary, safety blood tests (hematology and chemistry), urinalysis, urine drug screen and an alcohol breath test were repeated and a urine pregnancy test was done for women of childbearing potential.
as §1

[1] = 0.05 mg/kg IV 1 hr infusion (N = 6)
[2] = 0.5 mg/kg IV 2 hr infusion (N = 6)
[3] = Cohort 1: 0.05 mg/kg IV 1-hr infusion (N = 6)

Structure (SMILES): CC(C)[C@H](NC(=O)[C@H](Cc1c[nH]c2ccccc12)NC(=O)[C@H](CCCNC(=N)N)NC(=O)[C@H](CCCNC(=N)N)NC(=O)[C@@H](NC(=O)[C@@H](NC(=O)[C@H](CCCNC(=N)N)NC(=O)[C@@H](NC(=O)[C@@H](NC(=O)[C@H](CCCNC(=N)N)NC(=O)[C@H](CCCNC(=N)N)NC(=O)[C@H](Cc1c[nH]c2ccccc12)NC(=O)[C@@H](NC(=O)[C@H](CCCNC(=N)N)NC(=O)[C@H](CCCNC(=N)N)NC(=O)[C@@H](NC(=O)[C@H](CCCNC(=N)N)NC(=O)[C@H](CCCNC(=N)N)NC(=O)[C@@H](NC(=O)[C@H](Cc1c[nH]c2ccccc12)NC(=O)[C@H](CCCNC(=N)N)NC(=O)[C@@H](N)CCCNC(=N)N)C(C)C)C(C)C)C(C)C)C(C)C)C(C)C)C(C)C)C(C)C)C(=O)N[C@@H](CCCNC(=N)N)C(=O)N[C@@H](CCCNC(=N)N)C(N)=O [SEQ ID NO: 1] (H-RRWVRRVRRVWRRVVRVVRRWVRR-NH2)
- Related TEAE Abdominal [?], n participants [1]: 0
- Related TEAE Blood and lymphatic system disorders, n participants [1]: 0
- Related TEAE Co[?], n participants [1]: 0
- Related TEAE D[?] (r32, GI SOC), n participants [1]: 0
- Related TEAE F[?], n participants [1]: 0
- Related TEAE Gastrointestinal disorders, n participants [1]: 0
- Related TEAE In[?] related reaction, n participants [1]: 0
- Related TEAE Infusion [?] reaction, n participants [1]: 0
- Related TEAE Injury, poi[?] procedural complications, n participants [1]: 0
- Related TEAE M[?] and connective tissure disorders, n participants [1]: 0
- Related TEAE Myalgia, n participants [1]: 0
- Related TEAE Nervous system disorders, n participants [1]: 0
- Related TEAE O[?] (r25, vascular SOC), n participants [1]: 0
- Related TEAE O[?] (r38, respiratory SOC), n participants [1]: 0
- Related TEAE P[?] (r26, vascular SOC), n participants [1]: 0
- Related TEAE Pain in extremity, n participants [1]: 0
- Related TEAE Respiratory, thoracic and m[?] disorders, n participants [1]: 0
- Related TEAE T[?], n participants [1]: 0
- Related TEAE Vascular disorders, n participants [1]: 0
- Related TEAE Ve[?], n participants [1]: 0
- Related TEAE [?] headache, n participants [1]: 0
- TEAE A[?] (r19, skin SOC), n participants [1]: 0
- TEAE A[?] (r46, GI SOC), n participants [1]: 0
- TEAE Back pain, n participants [1]: 0
- TEAE Blood and lymphatic system disorders, n participants [1]: 0
- TEAE Constipation, n participants [1]: 0
- TEAE D[?] (r54), n participants [1]: 0
- TEAE D[?] contact, n participants [1]: 0
- TEAE Dia[?], n participants [1]: 0
- TEAE Headache, n participants [1]: 0
- TEAE In[?] (r53), n participants [1]: 0
- TEAE Injury, [?] and procedural complications, % participants [1]: 50.0%
- TEAE Injury, [?] and procedural complications, M occurrences [1]: 3
- TEAE Injury, [?] and procedural complications, n participants [1]: 3
- TEAE Mu[?], n participants [1]: 0
- TEAE Musculoskeletal and connective tissue disorders, n participants [1]: 0
- TEAE My[?], n participants [1]: 0
- TEAE O[?] (r37, vascular SOC), n participants [1]: 0
- TEAE O[?] pain, n participants [1]: 0
- TEAE Pain [?], n participants [1]: 0
- TEAE Participants with at least one [?], M occurrences [1]: 7
- TEAE Participants with at least one [?], n participants [1]: 5
- TEAE R[?] (r20, skin SOC), n participants [1]: 0
- TEAE Respiratory, thoracic and [?] disorders, n participants [1]: 0
- TEAE Severity Grade 1, occurrences (M) [1]: 7
- TEAE Severity Grade 1, participants % [1]: 83.3%
- TEAE Severity Grade 1, participants n [1]: 5
- TEAE Severity Grade 2, participants n [1]: 0
- TEAE Skin and [?] tissue [?], n participants [1]: 0
- TEAE Skin reaction, n participants [1]: 0
- TEAE Thermal [?], n participants [1]: 0
- TEAE V[?] (r24, general SOC), n participants [1]: 0
- TEAE V[?] access [?] (r10), % participants [1]: 50.0%
- TEAE V[?] access [?] (r10), M occurrences [1]: 3
- TEAE V[?] access [?] (r10), n participants [1]: 3
- TEAE V[?] puncture site [?] (r28), n participants [1]: 0
- TEAE Vascular access site [?] (r11), n participants [1]: 0
- TEAE Vascular access site [?] (r12), n participants [1]: 0
- TEAE Vascular access site [?] (r15), n participants [1]: 0
- TEAE Vascular disorders, n participants [1]: 0
- TEAE [?] (r13, under Injury SOC), n participants [1]: 0
- TEAE [?] (r25, general SOC), n participants [1]: 0
- TEAE [?] (r26, general SOC), n participants [1]: 0
- TEAE [?] (r38, vascular SOC), n participants [1]: 0
- TEAE [?] (r39, vascular SOC), n participants [1]: 0
- TEAE [?] (r44, nervous SOC), n participants [1]: 0
- TEAE [?] (r52, blood SOC), n participants [1]: 0
- TEAE, occurrences (M) [1]: 7
- Participants Reporting at least One TEAE, % [2]: 100%
- Related TEAE Blood and lymphatic system disorders, n participants [2]: 0
- Related TEAE Co[?], n participants [2]: 0
- Related TEAE F[?], n participants [2]: 0
- Related TEAE In[?] related reaction, n participants [2]: 0
- Related TEAE Injury, poi[?] procedural complications, n participants [2]: 0
- Related TEAE M[?] and connective tissure disorders, n participants [2]: 0
- Related TEAE Myalgia, n participants [2]: 0
- Related TEAE Nervous system disorders, n participants [2]: 0
- Related TEAE O[?] (r25, vascular SOC), n participants [2]: 0
- Related TEAE O[?] (r38, respiratory SOC), n participants [2]: 0
- Related TEAE P[?] (r26, vascular SOC), n participants [2]: 0
- Related TEAE Pain in extremity, n participants [2]: 0
- Related TEAE Respiratory, thoracic and m[?] disorders, n participants [2]: 0
- Related TEAE T[?], n participants [2]: 0
- Related TEAE V[?] (r18), n participants [2]: 0
- Related TEAE Vascular disorders, n participants [2]: 0
- Related TEAE [?] headache, n participants [2]: 0
- TEAE A[?] (r19, skin SOC), n participants [2]: 0
- TEAE Abdominal pain, n participants [2]: 0
- TEAE Blood and lymphatic system disorders, n participants [2]: 0
- TEAE Constipation, n participants [2]: 0
- TEAE D[?] contact, n participants [2]: 0
- TEAE Dizziness, n participants [2]: 0
- TEAE Gastrointestinal disorders, M occurrences [2]: 2
- TEAE Gastrointestinal disorders, n participants [2]: 1
- TEAE Injury, [?] and procedural complications, M occurrences [2]: 4
- TEAE Injury, [?] and procedural complications, n participants [2]: 3
- TEAE Mu[?], n participants [2]: 0
- TEAE My[?], n participants [2]: 0
- TEAE O[?] (r37, vascular SOC), n participants [2]: 0
- TEAE O[?] pain, n participants [2]: 0
- TEAE P[?] (r43, nervous SOC), n participants [2]: 0
- TEAE Respiratory, thoracic and [?] disorders, n participants [2]: 0
- TEAE Severity Grade 1, occurrences (M) [2]: 12
- TEAE Severity Grade 1, participants % [2]: 100%
- TEAE Severity Grade 1, participants n [2]: 6
- TEAE Severity Grade 2, occurrences (M) [2]: 3
- TEAE Severity Grade 2, participants n [2]: 2
- TEAE Skin and [?] tissue [?], M occurrences [2]: 3
- TEAE Skin and [?] tissue [?], n participants [2]: 2
- TEAE Skin reaction, M occurrences [2]: 2
- TEAE Skin reaction, n participants [2]: 1
- TEAE Thermal [?], n participants [2]: 0
- TEAE V[?] puncture site [?] (r27), n participants [2]: 0
- TEAE V[?] puncture site [?] (r28), n participants [2]: 0
- TEAE Vascular access site [?] (r15), n participants [2]: 0
- TEAE Vascular disorders, n participants [2]: 0
- TEAE [?] (r13, under Injury SOC), n participants [2]: 0
- TEAE [?] (r26, general SOC), n participants [2]: 0
- TEAE [?] (r38, vascular SOC), n participants [2]: 0
- TEAE [?] (r39, vascular SOC), n participants [2]: 0
- TEAE [?] (r44, nervous SOC), n participants [2]: 0
- TEAE [?] (r52, blood SOC), n participants [2]: 0
- TEAE, occurrences (M) [2]: 15
- overall safety and tolerability (0.05 to 0.5 mg/kg, drug concentration below […] and rate of infusion below 25 mg/hr): safe and well tolerated
- Number of Participants Reporting at least: Onc TEAE Leading to Study Withdrawal, n (%) [3]: 0
- Number of Participants Reporting at least: One Dose-Limiting Toxicity, n (%) [3]: 0
- Number of Participants Reporting at least: One Related TEAE, n (%) [3]: 1 (16.7%)
- Number of Participants Reporting at least: One Serious TEAE, n (%) [3]: 0
- Number of Participants Reporting at least: One TEAE Leading to Study Drug Discontinuation, n (%) [3]: 0
- Number of Participants Reporting at least: One TEAE with Common Terminology Criteria for Adverse Events (CTCAE) Toxicity ≥ Grade 3, n (%) [3]: 0
- Number of Participants Reporting at least: One TEAE, n (%) [3]: 5 (83.3%)
- One Related TEAE, m [3]: 1
- One TEAE, m [3]: 7
- Participants With At Least 1 TEAE, n (%) [3]: 5 (83.3%)
